Experimental data reported in patent US20240158392A1 (Janssen Biotech, Inc., priority 2021, published 2024).

What was measured:
[1] = molecular target: T1, SIK2 (Homo sapiens, UniProt Q9H0K1); test: SIK2 Enzymatic Assay Version 1 (ADP Glo); type: biochemical
Summary of the method: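 Room-temperature ADP-Glo luminescence assay; SIK2 added at 0.6 nM (2× final) and preincubated with compound for 30 min. Reaction stopped with ADP-Glo Reagent for 40 min, then detection reagent for at least 30 min; no-peptide (ATP-only) wells served as negative control.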

[2] = molecular target: T1, SIK2; test: SIK2 Enzymatic Assay High Version 2 (High ATP); type: biochemical
Summary of the method: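 At room temperature, enzyme (6 nM, 2× final) was preincubated with compound for 30 min, then 6 mM ATP and 400 μM HDAC5tide (both 2× final) were added for 2 h. ADP formed was measured by ADP-Glo Max (2 h reagent, 1 h detection) using luminescence.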

[3] = enzyme 0.6 nM, 160 μM ATP and 140 μM HDAC5tide (each 2× final concentration), 30 minutes pre-incubation, 4 hours, ADPGlo luminescence, read-out: SIK2 ADP Glo IC50 (μM) (Test Example 1)

T1 sequence (Q9H0K1 whole entry, species assumed): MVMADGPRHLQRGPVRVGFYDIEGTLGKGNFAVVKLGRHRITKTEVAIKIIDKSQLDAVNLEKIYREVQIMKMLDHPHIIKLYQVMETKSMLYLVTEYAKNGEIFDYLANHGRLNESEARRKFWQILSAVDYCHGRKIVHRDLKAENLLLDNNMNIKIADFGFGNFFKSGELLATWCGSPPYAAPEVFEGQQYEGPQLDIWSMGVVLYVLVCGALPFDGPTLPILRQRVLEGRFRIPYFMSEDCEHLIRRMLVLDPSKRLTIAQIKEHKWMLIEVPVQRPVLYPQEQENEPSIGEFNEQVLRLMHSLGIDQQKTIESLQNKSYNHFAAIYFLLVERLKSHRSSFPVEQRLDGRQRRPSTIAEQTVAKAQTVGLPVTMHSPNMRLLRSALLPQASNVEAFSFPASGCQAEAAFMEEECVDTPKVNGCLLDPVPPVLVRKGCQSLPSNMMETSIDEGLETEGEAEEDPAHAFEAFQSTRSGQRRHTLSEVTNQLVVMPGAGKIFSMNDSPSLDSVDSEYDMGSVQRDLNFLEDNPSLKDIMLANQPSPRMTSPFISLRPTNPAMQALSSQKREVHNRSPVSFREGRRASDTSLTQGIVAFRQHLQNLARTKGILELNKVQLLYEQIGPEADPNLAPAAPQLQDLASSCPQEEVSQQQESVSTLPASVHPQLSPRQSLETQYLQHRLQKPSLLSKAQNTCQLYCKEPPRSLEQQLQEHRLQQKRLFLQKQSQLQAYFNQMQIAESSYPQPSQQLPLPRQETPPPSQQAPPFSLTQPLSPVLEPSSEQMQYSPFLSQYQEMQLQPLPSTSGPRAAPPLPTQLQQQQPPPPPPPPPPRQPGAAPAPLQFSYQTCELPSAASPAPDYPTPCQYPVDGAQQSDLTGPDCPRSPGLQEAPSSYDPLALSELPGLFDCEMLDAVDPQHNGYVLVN

Compound CN1CC[C@@H](COc2cnc(Cl)cc2-c2ccn3nc(NC(=O)C4CC4)cc3c2)C1 [Example 490, N-[5-[2-chloro-5-[[(3R)-1-methylpyrrolidin-3-yl]methoxy]-4-pyridyl]pyrazolo[1,5-a]pyridin-2-yl]cyclopropanecarboxamide] has an IC50 [1, 3] of 0.0013 µM and an IC50 [2] of 17.9 nM.
O=C(Nc1cc2cc(-c3cc(OC(F)F)ncc3OC[C@@H]3CNCCO3)ccn2n1)C1CC1 [Example 503, N-[5-[2-(difluoromethoxy)-5-[[(2S)-morpholin-2-yl]methoxy]-4-pyridyl]pyrazolo[1,5-a]pyridin-2-yl]cyclopropanecarboxamide] showed an IC50 [1, 3] of 0.0038 µM and an IC50 [2] of 68.2 nM.
Cc1cc(-c2cn3cc(NC(=O)C4CC4)nc3cn2)c(OCC(C)(C)C#N)cn1 [Example 508, N-[6-[5-(2-cyano-2-methyl-propoxy)-2-methyl-4-pyridyl]imidazo[1,2-a]pyrazin-2-yl]cyclopropanecarboxamide] gave an IC50 [1, 3] of 0.00366 µM and an IC50 [2] of 53.7 nM.
Compound Cc1cc(-c2ccn3nc(NC(=O)C4CC4)cc3c2)c(OC[C@@H]2CCN(C)C2)cn1 [Example 509, N-[5-[2-methyl-5-[[(3R)-1-methylpyrrolidin-3-yl]methoxy]-4-pyridyl]pyrazolo[1,5-a]pyridin-2-yl]cyclopropanecarboxamide] has an IC50 [1, 3] of 0.00321 µM and an IC50 [2] of 55.9 nM.
CN1[C@@H]2COC[C@H]1CC(Nc1cnc(C#N)cc1-c1ccn3nc(NC(=O)C4CC4)cc3c1)C2 (stereo partly drawn) [Example 565, N-[5-[2-cyano-5-[[(1R,5S)-9-methyl-3-oxa-9-azabicyclo[3.3.1]nonan-7-yl]amino]-4-pyridyl]pyrazolo[1,5-a]pyridin-2-yl]cyclopropanecarboxamide] gave an IC50 [1, 3] of 0.00384 µM and an IC50 [2] of 88.2 nM.
Cn1ccc(Nc2cc3cc(-c4cc(C#N)ccc4OC[C@H]4CNCCO4)ccn3n2)n1 [Example 566, 3-[2-[(1-methylpyrazol-3-yl)amino]pyrazolo[1,5-a]pyridin-5-yl]-4-[[(2R)-morpholin-2-yl]methoxy]benzonitrile] was tested, and the IC50 [1, 3] was 0.00389 µM and the IC50 [2] was 101 nM.
Compound Cc1cc(-c2ccn3nc(Nc4ccccn4)cc3c2)c(OC2CN(C)C2)cn1 [Example 567, 5-[2-methyl-5-(1-methylazetidin-3-yl)oxy-4-pyridyl]-N-(2-pyridyl)pyrazolo[1,5-a]pyridin-2-amine] has an IC50 [1, 3] of 0.00757 µM and an IC50 [2] of 251 nM.
Compound Cc1cc(-c2ccn3nc(Nc4cnn(C)c4)cc3c2)c(OC2CN(C)C2)cn1 [Example 568, 5-[2-methyl-5-(1-methylazetidin-3-yl)oxy-4-pyridyl]-N-(1-methylpyrazol-4-yl)pyrazolo[1,5-a]pyridin-2-amine] has an IC50 [1, 3] of 0.00471 µM and an IC50 [2] of 93.3 nM.
With CCOc1cnc(C#N)cc1-c1ccn2nc(NC(=O)C3CC3)cc2c1 [Example 583, N-[5-(2-cyano-5-ethoxy-4-pyridyl)pyrazolo[1,5-a]pyridin-2-yl]cyclopropanecarboxamide] the IC50 [1, 3] was 0.00412 µM and the IC50 [2] was 61.1 nM.
In the case of N#Cc1cc(-c2ccn3nc(NC(=O)C4CC4)cc3c2)c(OCC2CC2)cn1 [Example 584, N-[5-[2-cyano-5-(cyclopropylmethoxy)-4-pyridyl]pyrazolo[1,5-a]pyridin-2-yl]cyclopropanecarboxamide], the IC50 [1, 3] is reported as 0.00253 µM and the IC50 [2] is reported as 35.3 nM.
N#Cc1cc(-c2ccn3nc(NC(=O)C4CC4)cc3c2)c(OC[C@@H]2CCCNC2)cn1 [Example 585, N-[5-[2-cyano-5-[[(3R)-3-piperidyl]methoxy]-4-pyridyl]pyrazolo[1,5-a]pyridin-2-yl]cyclopropanecarboxamide] showed an IC50 [1, 3] of 0.00148 µM and an IC50 [2] of 16.9 nM.
N#Cc1cc(-c2ccn3nc(NC(=O)C4CC4)cc3c2)c(OC[C@H]2CC[C@H](N)CC2)cn1 [Example 586, N-(5-(5-(((1r,4r)-4-aminocyclohexyl)methoxy)-2-cyanopyridin-4-yl)pyrazolo[1,5-a]pyridin-2-yl)cyclopropanecarboxamide] gave an IC50 [1, 3] of 0.00095 µM and an IC50 [2] of 8.63 nM.
N#Cc1cc(-c2ccn3nc(NC(=O)C4CC4)cc3c2)c(OC2CC3(CNC3)C2)cn1 [Example 587, N-[5-[5-(6-azaspiro[3.3]heptan-2-yloxy)-2-cyano-4-pyridyl]pyrazolo[1,5-a]pyridin-2-yl]cyclopropanecarboxamide] gave an IC50 [1, 3] of 0.00381 µM and an IC50 [2] of 87 nM.
Compound N#Cc1cc(-c2ccn3nc(NC(=O)C4CC4)cc3c2)c(OC[C@@H]2CCN(CC(F)(F)F)C2)cn1 [Example 588, N-[5-[2-cyano-5-[[(3R)-1-(2,2,2-trifluoroethyl)pyrrolidin-3-yl]methoxy]-4-pyridyl]pyrazolo[1,5-a]pyridin-2-yl]cyclopropanecarboxamide] has an IC50 [1, 3] of 0.00342 µM and an IC50 [2] of 59.6 nM.
N#Cc1cc(-c2ccn3nc(NC(=O)C4CC4)cc3c2)c(OC[C@@H]2CCN(C3CC3)C2)cn1 [Example 589, N-[5-[2-cyano-5-[[(3R)-1-cyclopropylpyrrolidin-3-yl]methoxy]-4-pyridyl]pyrazolo[1,5-a]pyridin-2-yl]cyclopropanecarboxamide] showed an IC50 [1, 3] of 0.00625 µM and an IC50 [2] of 75.9 nM.
In the case of N#Cc1cc(-c2ccn3nc(NC(=O)C4CC4)cc3c2)c(OC2CN(CC(F)(F)F)C2)cn1 [Example 590, N-[5-[2-cyano-5-[1-(2,2,2-trifluoroethyl)azetidin-3-yl]oxy-4-pyridyl]pyrazolo[1,5-a]pyridin-2-yl]cyclopropanecarboxamide], the IC50 [1, 3] is reported as 0.00124 µM and the IC50 [2] is reported as 19.5 nM.
In the case of N#Cc1cc(-c2ccn3nc(NC(=O)C4CC4)cc3c2)c(OC[C@H]2C[C@H](N)C2)cn1 [Example 591, N-(5-(5-(((1r,3r)-3-aminocyclobutyl)methoxy)-2-cyanopyridin-4-yl)pyrazolo[1,5-a]pyridin-2-yl)cyclopropanecarboxamide], the IC50 [1, 3] is reported as 0.000647 µM and the IC50 [2] is reported as 7.9 nM.
N#Cc1cc(-c2ccn3nc(NC(=O)C4CC4)cc3c2)c(OC[C@H]2CNCCO2)cn1 [Example 592, N-[5-[2-cyano-5-[[(2R)-morpholin-2-yl]methoxy]-4-pyridyl]pyrazolo[1,5-a]pyridin-2-yl]cyclopropanecarboxamide] showed an IC50 [1, 3] of 0.00486 µM and an IC50 [2] of 120 nM.
N#Cc1cc(-c2ccn3nc(NC(=O)C4CC4)cc3c2)c(OC[C@H]2CCCNC2)cn1 [Example 593, N-[5-[2-cyano-5-[[(3S)-3-piperidyl]methoxy]-4-pyridyl]pyrazolo[1,5-a]pyridin-2-yl]cyclopropanecarboxamide] was tested, and the IC50 [1, 3] was 0.00242 µM and the IC50 [2] was 30.7 nM.
In the case of N#Cc1cc(-c2ccn3nc(NC(=O)C4CC4)cc3c2)c(O[C@@H]2CCNC2)cn1 [Example 594, N-[5-[2-cyano-5-[(3R)-pyrrolidin-3-yl]oxy-4-pyridyl]pyrazolo[1,5-a]pyridin-2-yl]cyclopropanecarboxamide], the IC50 [1, 3] is reported as 0.000627 µM and the IC50 [2] is reported as 9.09 nM.
With N#CCN[C@H]1C[C@@H](COc2cnc(C#N)cc2-c2ccn3nc(NC(=O)C4CC4)cc3c2)C1 [Example 596, N-[5-[2-cyano-5-[[3-(cyanomethylamino)cyclobutyl]methoxy]-4-pyridyl]pyrazolo[1,5-a]pyridin-2-yl]cyclopropanecarboxamide] the IC50 [1, 3] was 0.00125 µM and the IC50 [2] was 14.6 nM.
Work on N#Cc1cc(-c2ccn3nc(NC(=O)C4CC4)cc3c2)c(OC[C@H]2C[C@@H](NC3CC3)C2)cn1 [Example 597, N-[5-[2-cyano-5-[[3-(cyclopropylamino)cyclobutyl]methoxy]-4-pyridyl]pyrazolo[1,5-a]pyridin-2-yl]cyclopropanecarboxamide] yielded an IC50 [1, 3] of 0.00192 µM and an IC50 [2] of 29.9 nM.
CCOC(=O)CN[C@H]1C[C@@H](COc2cnc(C#N)cc2-c2ccn3nc(NC(=O)C4CC4)cc3c2)C1 [Example 598, ethyl 2-[[3-[[6-cyano-4-[2-(cyclopropanecarbonylamino)pyrazolo[1,5-a]pyridin-5-yl]-3-pyridyl]oxymethyl]cyclobutyl]amino]acetate] gave an IC50 [1, 3] of 0.0041 µM and an IC50 [2] of 53.5 nM.
Work on Cc1cc(-c2ccn3nc(Nc4cc(C)nc(C)n4)cc3c2)c(OCC(C)(C)O)nn1 [Example 600, 1-[4-[2-[(2,6-dimethylpyrimidin-4-yl)amino]pyrazolo[1,5-a]pyridin-5-yl]-6-methyl-pyridazin-3-yl]oxy-2-methyl-propan-2-ol] yielded an IC50 [1, 3] of 0.0142 µM and an IC50 [2] of 207 nM.
Cc1cc(Nc2cc3cc(-c4cc(OC(C)C)ncc4OCC(C)(C)C#N)ccn3n2)nc(C)n1 [Example 663, 3-[[4-[2-[(2,6-dimethylpyrimidin-4-yl)amino]pyrazolo[1,5-a]pyridin-5-yl]-6-isopropoxy-3-pyridyl]oxy]-2,2-dimethyl-propanenitrile] gave an IC50 [1, 3] of 0.000151 µM and an IC50 [2] of under 0.838 nM.
Compound COc1cnccc1-c1ccn2nc(NC(=O)C3CC3)cc2c1 [Example 749, N-[5-(3-methoxy-4-pyridyl)pyrazolo[1,5-a]pyridin-2-yl]cyclopropanecarboxamide] has an IC50 [1, 3] of 0.0179 µM and an IC50 [2] of 821 nM.
Compound CCOc1cnc(C)cc1-c1ccn2nc(NC(=O)C3CC3)cc2c1 [Example 752, N-[5-(5-ethoxy-2-methyl-4-pyridyl)pyrazolo[1,5-a]pyridin-2-yl]cyclopropanecarboxamide] has an IC50 [1, 3] of 0.061 µM and an IC50 [2] of 806 nM.
N#Cc1cc(-c2ccn3nc(NC(=O)C4CC4)cc3c2)c(OCc2ccccc2)cn1 [Example 753, N-[5-(5-benzyloxy-2-cyano-4-pyridyl)pyrazolo[1,5-a]pyridin-2-yl]cyclopropanecarboxamide] was tested, and the IC50 [1] was 0.00298 µM and the IC50 [2] was 483 nM.
